According to ChEMBL document CHEMBL5724914, “Linking interpersonal differences in gut microbiota composition and drug biotransformation activity” (2024):

assay: (§1) The drug is tested on Z-029 corresponding to rat gut metagenome with ENA study accession number: PRJEB37062 and ENA sample accession number: ERS12561828 for biotransformation under anaerobic condition. The drug concentrations were measured over 9 timepoints collected between 0 and 24 hours of incubation by liquid-chromatography-coupled mass spectrometry (LC–MS); settings: 2 µM
Also: call rule not given here.

Bacterial Biotransformation | Structure (SMILES)
Compound NOT metabolized | CC(CN1c2ccccc2Sc2ccccc21)N(C)C (stereo not given) [PROMETHAZINE]
Compound NOT metabolized | COc1ccc(CCN(C)CCCC(C#N)(c2ccc(OC)c(OC)c2)C(C)C)cc1OC (stereo not given)

assay: as §1, with “on Z-018” for “on Z-029”, “to pig” for “to rat”, “number: ERS12561817” for “number: ERS12561828”; settings: 2 µM

Bacterial Biotransformation | Structure (SMILES)
Compound metabolized | CC(CN1c2ccccc2Sc2ccccc21)N(C)C (stereo not given) [PROMETHAZINE]
Compound metabolized | COc1ccc(CCN(C)CCCC(C#N)(c2ccc(OC)c(OC)c2)C(C)C)cc1OC (stereo not given)

assay: as §1, with “Z-012” for “Z-029”, “to” for “to rat gut”, “ERS12561812” for “ERS12561828”; settings: 2 µM

Bacterial Biotransformation | Structure (SMILES)
Compound NOT metabolized | CC(CN1c2ccccc2Sc2ccccc21)N(C)C (stereo not given) [PROMETHAZINE]
Compound metabolized | COc1ccc(CCN(C)CCCC(C#N)(c2ccc(OC)c(OC)c2)C(C)C)cc1OC (stereo not given)

assay: as §1, with “Z-007” for “Z-029”, “ERS12561807” for “ERS12561828”; settings: 2 µM

Bacterial Biotransformation | Structure (SMILES)
Compound NOT metabolized | CC(CN1c2ccccc2Sc2ccccc21)N(C)C (stereo not given) [PROMETHAZINE]
Compound NOT metabolized | COc1ccc(CCN(C)CCCC(C#N)(c2ccc(OC)c(OC)c2)C(C)C)cc1OC (stereo not given)

assay: as §1, with “Z-005” for “Z-029”, “to” for “to rat gut”, “ERS12561805” for “ERS12561828”; settings: 2 µM

Bacterial Biotransformation | Structure (SMILES)
Compound NOT metabolized | CC(CN1c2ccccc2Sc2ccccc21)N(C)C (stereo not given) [PROMETHAZINE]
Compound metabolized | COc1ccc(CCN(C)CCCC(C#N)(c2ccc(OC)c(OC)c2)C(C)C)cc1OC (stereo not given)

assay: as §1, with “on Z-003” for “on Z-029”, “to pig” for “to rat”, “number: ERS12561803” for “number: ERS12561828”; settings: 2 µM

Bacterial Biotransformation | Structure (SMILES)
Compound NOT metabolized | CC(CN1c2ccccc2Sc2ccccc21)N(C)C (stereo not given) [PROMETHAZINE]
Compound metabolized | COc1ccc(CCN(C)CCCC(C#N)(c2ccc(OC)c(OC)c2)C(C)C)cc1OC (stereo not given)

assay: as §1, with “on WLS-350” for “on Z-029”, “to human” for “to rat”, “number: ERS12561789” for “number: ERS12561828”; settings: 2 µM

Bacterial Biotransformation | Structure (SMILES)
Compound metabolized | CC(CN1c2ccccc2Sc2ccccc21)N(C)C (stereo not given) [PROMETHAZINE]
Compound metabolized | COc1ccc(CCN(C)CCCC(C#N)(c2ccc(OC)c(OC)c2)C(C)C)cc1OC (stereo not given)

assay: as §1, with “on WLS-240” for “on Z-029”, “to human” for “to rat”, “number: ERS12561773” for “number: ERS12561828”; settings: 2 µM

Bacterial Biotransformation | Structure (SMILES)
Compound metabolized | CC(CN1c2ccccc2Sc2ccccc21)N(C)C (stereo not given) [PROMETHAZINE]
Compound metabolized | COc1ccc(CCN(C)CCCC(C#N)(c2ccc(OC)c(OC)c2)C(C)C)cc1OC (stereo not given)

assay: as §1, with “on WLS-082” for “on Z-029”, “to human” for “to rat”, “number: ERS12561751” for “number: ERS12561828”; settings: 2 µM

Bacterial Biotransformation | Structure (SMILES)
Compound NOT metabolized | CC(CN1c2ccccc2Sc2ccccc21)N(C)C (stereo not given) [PROMETHAZINE]
Compound metabolized | COc1ccc(CCN(C)CCCC(C#N)(c2ccc(OC)c(OC)c2)C(C)C)cc1OC (stereo not given)

settings: human gut metagenome, 24 h, 2 µM

Bacterial Biotransformation | Structure (SMILES)
Compound metabolized | CC(CN1c2ccccc2Sc2ccccc21)N(C)C (stereo not given) [PROMETHAZINE]
Compound metabolized | COc1ccc(CCN(C)CCCC(C#N)(c2ccc(OC)c(OC)c2)C(C)C)cc1OC (stereo not given)

settings: human gut metagenome, 24 h, 2 µM; remark: another data set of the same source

Bacterial Biotransformation | Structure (SMILES)
Compound metabolized | CC(CN1c2ccccc2Sc2ccccc21)N(C)C (stereo not given) [PROMETHAZINE]
Compound metabolized | COc1ccc(CCN(C)CCCC(C#N)(c2ccc(OC)c(OC)c2)C(C)C)cc1OC (stereo not given)

settings: human gut metagenome, 24 h, 2 µM; remark: another data set of the same source

Bacterial Biotransformation | Structure (SMILES)
Compound metabolized | CC(CN1c2ccccc2Sc2ccccc21)N(C)C (stereo not given) [PROMETHAZINE]
Compound metabolized | COc1ccc(CCN(C)CCCC(C#N)(c2ccc(OC)c(OC)c2)C(C)C)cc1OC (stereo not given)

settings: human gut metagenome, 24 h, 2 µM; remark: another data set of the same source

Bacterial Biotransformation | Structure (SMILES)
Compound NOT metabolized | CC(CN1c2ccccc2Sc2ccccc21)N(C)C (stereo not given) [PROMETHAZINE]
Compound metabolized | COc1ccc(CCN(C)CCCC(C#N)(c2ccc(OC)c(OC)c2)C(C)C)cc1OC (stereo not given)

settings: human gut metagenome, 24 h, 2 µM; remark: another data set of the same source

Bacterial Biotransformation | Structure (SMILES)
Compound metabolized | CC(CN1c2ccccc2Sc2ccccc21)N(C)C (stereo not given) [PROMETHAZINE]
Compound metabolized | COc1ccc(CCN(C)CCCC(C#N)(c2ccc(OC)c(OC)c2)C(C)C)cc1OC (stereo not given)

settings: human gut metagenome, 24 h, 2 µM; remark: another data set of the same source

Bacterial Biotransformation | Structure (SMILES)
Compound NOT metabolized | CC(CN1c2ccccc2Sc2ccccc21)N(C)C (stereo not given) [PROMETHAZINE]
Compound NOT metabolized | COc1ccc(CCN(C)CCCC(C#N)(c2ccc(OC)c(OC)c2)C(C)C)cc1OC (stereo not given)

settings: human gut metagenome, 24 h, 2 µM; remark: another data set of the same source

Bacterial Biotransformation | Structure (SMILES)
Compound NOT metabolized | CC(CN1c2ccccc2Sc2ccccc21)N(C)C (stereo not given) [PROMETHAZINE]
Compound metabolized | COc1ccc(CCN(C)CCCC(C#N)(c2ccc(OC)c(OC)c2)C(C)C)cc1OC (stereo not given)

settings: human gut metagenome, 24 h, 2 µM; remark: another data set of the same source

Bacterial Biotransformation | Structure (SMILES)
Compound metabolized | CC(CN1c2ccccc2Sc2ccccc21)N(C)C (stereo not given) [PROMETHAZINE]
Compound metabolized | COc1ccc(CCN(C)CCCC(C#N)(c2ccc(OC)c(OC)c2)C(C)C)cc1OC (stereo not given)

settings: human gut metagenome, 24 h, 2 µM; remark: another data set of the same source

Bacterial Biotransformation | Structure (SMILES)
Compound NOT metabolized | CC(CN1c2ccccc2Sc2ccccc21)N(C)C (stereo not given) [PROMETHAZINE]
Compound NOT metabolized | COc1ccc(CCN(C)CCCC(C#N)(c2ccc(OC)c(OC)c2)C(C)C)cc1OC (stereo not given)

settings: human gut metagenome, 24 h, 2 µM; remark: another data set of the same source

Bacterial Biotransformation | Structure (SMILES)
Compound metabolized | CC(CN1c2ccccc2Sc2ccccc21)N(C)C (stereo not given) [PROMETHAZINE]
Compound metabolized | COc1ccc(CCN(C)CCCC(C#N)(c2ccc(OC)c(OC)c2)C(C)C)cc1OC (stereo not given)

settings: human gut metagenome, 24 h, 2 µM; remark: another data set of the same source

Bacterial Biotransformation | Structure (SMILES)
Compound NOT metabolized | CC(CN1c2ccccc2Sc2ccccc21)N(C)C (stereo not given) [PROMETHAZINE]
Compound NOT metabolized | COc1ccc(CCN(C)CCCC(C#N)(c2ccc(OC)c(OC)c2)C(C)C)cc1OC (stereo not given)
